Several values for one entry are separate records, joined by “and”; a condition that tells them apart may be missing. Identical values can stand only once. Entries after “also recorded” stand apart in the source; their conditions may differ.
Tests used:
[1] = system: nicotine-stimulated norepinephrine release, hippocampal synaptosomes; conditions: cited from earlier work
[2] = system: norepinephrine release, hippocampal slice preparations; conditions: cited from earlier work
[3] = system: nicotine-stimulated [3H]-dopamine release from rat striatal synaptosomes; conditions: read-out: EC50, increase of [3H]-dopamine release; cited from earlier work
[4] = system: nicotine-stimulated [3H]-dopamine release from rat striatal synaptosomes; assay type: cell-based
[5] = system: potassium-stimulated dopamine release; assay type: cell-based, rat
[6] = system: nicotine-stimulated norepinephrine release, hippocampal synaptosomes; assay type: cell-based, rat
[7] = target: α3β2 nAChRs expressed in Xenopus oocytes (Rattus norvegicus, UniProt P04757+P12390); conditions: read-out: IC50, block of α3β2 nAChRs; cited from earlier work
Sequence of α3β2 nAChRs expressed in Xenopus oocytes (P04757 26-499 limits assumed): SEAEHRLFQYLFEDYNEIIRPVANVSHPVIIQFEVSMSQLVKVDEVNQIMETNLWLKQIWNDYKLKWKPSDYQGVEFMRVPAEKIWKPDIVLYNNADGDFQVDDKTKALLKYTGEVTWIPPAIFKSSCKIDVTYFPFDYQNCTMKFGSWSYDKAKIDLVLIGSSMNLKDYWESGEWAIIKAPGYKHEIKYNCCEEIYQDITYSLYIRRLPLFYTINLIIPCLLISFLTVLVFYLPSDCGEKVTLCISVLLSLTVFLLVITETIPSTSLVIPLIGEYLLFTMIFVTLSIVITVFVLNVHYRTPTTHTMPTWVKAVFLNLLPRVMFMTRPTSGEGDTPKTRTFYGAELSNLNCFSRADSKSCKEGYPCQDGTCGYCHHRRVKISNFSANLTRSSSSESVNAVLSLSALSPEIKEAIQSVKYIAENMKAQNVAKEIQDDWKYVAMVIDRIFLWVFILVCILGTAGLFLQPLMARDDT
Sequence of α3β2 nAChRs expressed in Xenopus oocytes (P12390 25-500 limits assumed): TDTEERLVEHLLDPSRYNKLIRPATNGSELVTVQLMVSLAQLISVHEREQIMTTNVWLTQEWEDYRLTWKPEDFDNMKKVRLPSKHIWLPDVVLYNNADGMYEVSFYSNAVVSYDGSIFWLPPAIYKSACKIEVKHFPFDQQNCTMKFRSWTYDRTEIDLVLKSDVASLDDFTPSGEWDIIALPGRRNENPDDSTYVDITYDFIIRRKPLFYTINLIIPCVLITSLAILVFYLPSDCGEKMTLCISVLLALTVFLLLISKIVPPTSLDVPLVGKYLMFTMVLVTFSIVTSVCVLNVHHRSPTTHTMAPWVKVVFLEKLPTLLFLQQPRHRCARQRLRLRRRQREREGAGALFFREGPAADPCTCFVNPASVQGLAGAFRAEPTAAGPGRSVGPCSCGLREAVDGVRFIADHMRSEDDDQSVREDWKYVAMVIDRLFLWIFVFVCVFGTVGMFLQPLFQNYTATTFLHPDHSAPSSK

[8] = system: other nAChR subunit combinations (α7, α4β2, α2β2, α3β4, α1β1δγ, α4β4); conditions: cited from earlier work

CN1CCCC1c1cccnc1.O=C(O)C(O)C(O)C(=O)O (single isomer, unassigned; (-)) [nicotine, (-)Nicotine hydrogen tartrate]
EC50 [1]: 6500 nM
norepinephrine release over baseline [2]: ~ 700%
EC50 [3]: 160 nM

CNC1(C)C2CCC(C2)C1(C)C (centres unmarked) [mecamylamine, reference compound]
block of nicotine-stimulated dopamine release [4]: fully blocked

NC1=N[C@H](O)[C@H]2[C@H]3O[C@]4(O)O[C@@H]([C@@H](O)[C@@]2(N1)[C@@H]4O)[C@]3(O)CO [tetrodotoxin]
effect on nicotine-stimulated synaptosomal release of norepinephrine [1]: not affected
block of nicotine-stimulated norepinephrine release from hippocampal slices [2]: majority

α-conotoxin ImI [reference compound]
block of nicotine-stimulated dopamine release [4]: do not block; also recorded: no effect

α-conotoxin MII
block of nicotine-evoked [3H]-dopamine release [4]: significantly blocked
block of nicotine-stimulated [3H]-dopamine release [4]: 33% and 34% and 44% and 50%
block of nicotine-stimulated [3H]-dopamine release (words) [4]: nonsignificant trend toward block
block of nicotine-stimulated dopamine release [4]: blocks a fraction; also recorded: blocks a part but not all
effect on potassium-stimulated dopamine release [5]: no effect
block of nicotine-stimulated norepinephrine release [6]: significant block
block of nicotine-stimulated synaptosomal norepinephrine release [6]: do not block
IC50 [7]: 0.5 nM
affinities for other nAChR subunit combinations relative to α3β2 [8]: two to four orders-of-magnitude higher
discrimination between the α3/β2 and α3/β4 interface [8]: four orders-of-magnitude
